Measured values taken from publication PMC7686313, “Phase 1 study of mTORC1/2 inhibitor sapanisertib (TAK-228) in advanced solid tumours, with an expansion phase in renal, endometrial or bladder cancer” (British Journal of Cancer, 2020).

Experiment: Safety (adverse events, NCI CTCAE v4.0), expansion phase
Settings: expansion QW 40 mg
Source text: Based on data collected during dose-escalation, the expansion phase evaluated the safety and efficacy of QD and QW sapanisertib in patients with RCC, endometrial or bladder cancer. Patients could continue receiving sapanisertib for ≤1 year (or beyond, if the investigator and sponsor agreed) in the absence of disease progression or unacceptable toxicity.
Patients who received ≥1 dose of sapanisertib were included in the safety population. The response-evaluable population included patients who received ≥1 dose of sapanisertib, had measurable disease at baseline, and had ≥1 postbaseline assessment. […] Adverse events (AEs) were assessed using the National Cancer Institute Common Terminology Criteria for Adverse Events, v4.0. Patients were provided with a home blood-glucose meter to monitor their fasting predose blood-glucose measurements to assess hyperglycaemia as an on-target AE and PD marker.

CC(C)n1nc(-c2ccc3oc(N)nc3c2)c2c(N)ncnc21 [Sapanisertib]
5 (19) n (%): Blood creatinine increased, all-grade AE of any cause | Dehydration, treatment-related AE | Oedema peripheral, all-grade AE of any cause | Pyrexia, all-grade AE of any cause
1 (4) n (%): Asthenia, treatment-related grade ≥3 AE | Constipation, grade ≥3 AE of any cause | Diarrhoea, grade ≥3 AE of any cause | Diarrhoea, treatment-related grade ≥3 AE | Hypertension, grade ≥3 AE of any cause | Hyponatremia, grade ≥3 AE of any cause | Lymphopenia, grade ≥3 AE of any cause | Musculoskeletal chest pain, grade ≥3 AE of any cause | On-study deaths | Pain in extremity, grade ≥3 AE of any cause | Rash maculo-papular, grade ≥3 AE of any cause | Rash maculo-papular, treatment-related AE | Rash, treatment-related AE | Stomatitis, grade ≥3 AE of any cause | Stomatitis, treatment-related grade ≥3 AE | Thrombocytopenia, grade ≥3 AE of any cause | Thrombocytopenia, treatment-related grade ≥3 AE | Transitional cell carcinoma, grade ≥3 AE of any cause | Vomiting, grade ≥3 AE of any cause
14 (54) n (%): Any treatment-related grade ≥3 AE | Decreased appetite, all-grade AE of any cause | Decreased appetite, treatment-related AE
7 (27) n (%): Arthralgia, all-grade AE of any cause | Dehydration, all-grade AE of any cause | Dry mouth, all-grade AE of any cause | Weight decreased, all-grade AE of any cause
26 (100) n (%): Any AE | Any treatment-related AE
9 (35) n (%): Any SAE | Oropharyngeal pain, all-grade AE of any cause
24 (92) n (%): Fatigue, all-grade AE of any cause
11 (42) n (%): Anaemia, all-grade AE of any cause
23 (88) n (%): Fatigue, treatment-related AE
2 (8) n (%): Acute kidney injury, grade ≥3 AE of any cause | Any AE resulting in treatment discontinuation | Asthenia, grade ≥3 AE of any cause | Dehydration, treatment-related grade ≥3 AE | Dyspepsia, treatment-related AE | Hypophosphatemia, grade ≥3 AE of any cause | Hypophosphatemia, treatment-related grade ≥3 AE | Nausea, grade ≥3 AE of any cause | Nausea, treatment-related grade ≥3 AE | Pruritus generalised, treatment-related AE
6 (23) n (%): Dry mouth, treatment-related AE | Headache, all-grade AE of any cause | Hyperglycaemia, grade ≥3 AE of any cause | Hyperglycaemia, treatment-related grade ≥3 AE
10 (38) n (%): Constipation, all-grade AE of any cause | Stomatitis (includes oropharyngeal pain and mucosal inflammation), treatment-related AE
8 (31) n (%): Anaemia, treatment-related AE | Cough, all-grade AE of any cause | Urinary tract infection, all-grade AE of any cause
20 (77) n (%): Any AE resulting in dose modification/interruption | Hyperglycaemia, all-grade AE of any cause | Hyperglycaemia, treatment-related AE | Nausea, all-grade AE of any cause | Nausea, treatment-related AE | Vomiting, all-grade AE of any cause
13 (50) n (%): Diarrhoea, all-grade AE of any cause | Diarrhoea, treatment-related AE
3 (12) n (%): Anaemia, grade ≥3 AE of any cause | Dehydration, grade ≥3 AE of any cause | Depression, all-grade AE of any cause | Dizziness, all-grade AE of any cause | Dysgeusia, all-grade AE of any cause | Dysgeusia, treatment-related AE | Pruritus generalised, all-grade AE of any cause | Pruritus, treatment-related AE
4 (15) n (%): Abdominal pain, all-grade AE of any cause | Acute kidney injury, treatment-related AE | Any treatment-related SAE | Asthenia, treatment-related AE | Blood creatinine increased, treatment-related AE | Fatigue, grade ≥3 AE of any cause | Fatigue, treatment-related grade ≥3 AE | Headache, treatment-related AE | Hypophosphatemia, treatment-related AE | Pruritus, all-grade AE of any cause | Rash maculo-papular, all-grade AE of any cause | Weight decreased, treatment-related AE
0 (0) n (%): Abdominal pain, grade ≥3 AE of any cause | Dyspnoea, grade ≥3 AE of any cause | Haematuria, grade ≥3 AE of any cause | Hypercholesterolemia, treatment-related AE | Hyperkalaemia, grade ≥3 AE of any cause | Hypokalaemia, grade ≥3 AE of any cause | Lymphopenia, treatment-related grade ≥3 AE | Pneumonia, grade ≥3 AE of any cause | Pruritus generalised, treatment-related grade ≥3 AE | Rash maculo-papular, treatment-related grade ≥3 AE | Rash, treatment-related grade ≥3 AE | Sepsis, grade ≥3 AE of any cause
12 (46) n (%): Stomatitis, all-grade AE of any cause
19 (73) n (%): Any grade ≥3 AE | Vomiting, treatment-related AE
